SMILES strings stand for the structures.

Holding throughout (assay): drug sensitivity score (DSS) (DSS (dimensionless)); higher = more sensitive (stronger drug response)
One assay deals with FIMM-PDC1 (patient-derived ovarian cancer cells). To be noted: genetic perturbation: none (patient-derived cell culture). The procedure, abridged:
(§1)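 Cells, either patient-derived cultures or ovarian cancer cell lines given 100 ng/ml doxycycline for no less than three days to induce shRNA, went into 384-well plates at 1 000 – 1 500 per well over drugs pre-plated in five concentrations across a 10,000-fold range. The plates were held for three days at 37 °C with 5.0 % CO2. Cell viability was then taken from CellTiter-Glo luminescence on a PHERAstar FS. For each drug, a drug sensitivity score from its dose-response curve was obtained by a method described earlier.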

In another assay the test system is FIMM-PDC3 (patient-derived ovarian cancer cells). To be noted: genetic perturbation: none (patient-derived cell culture). In short, it runs like this: as §1
Another assay has as its system FIMM-PDC4 (patient-derived ovarian cancer cells). The following applies: genetic perturbation: none (patient-derived cell culture). The procedure, abridged: as §1
A further assay concerns FIMM-PDC5 (patient-derived ovarian cancer cells). The following applies: genetic perturbation: none (patient-derived cell culture). The procedure, abridged:
as §1

Another assay has as its system FIMM-PDC6 (patient-derived ovarian cancer cells). The following applies: genetic perturbation: none (patient-derived cell culture). In short, it runs like this:
as §1

The subject of a further assay is FIMM-PDC7 (patient-derived ovarian cancer cells). The following applies: genetic perturbation: none (patient-derived cell culture). The procedure, abridged: as §1
Another assay has as its system JHOS2. The procedure, abridged:
as §1

A further assay relates to Kuramochi. In short, it runs like this: as §1
The next assay concerns OVSAHO. In short, it runs like this:
as §1

In a further assay the test system is FIMM-PDC2 (patient-derived ovarian cancer cells). To be noted: genetic perturbation: none (patient-derived cell culture). In short, it runs like this: as §1
Setting [1] is: genetic perturbation: DOX-induced PTK7 shRNA knockdown.
Where [2] appears, read: genetic perturbation: DOX-induced control shRNA.

Turning to `CC(C)C[C@H](NC(=O)CNC(=O)c1cc(Cl)ccc1Cl)B(O)O` [Ixazomib], the drug sensitivity score in the assay with FIMM-PDC1 worked out at 13.6; in the assay on FIMM-PDC3 it was 17.1; in the assay with FIMM-PDC4, 13.8; with FIMM-PDC5, 12; in the assay with FIMM-PDC6, 19.2; with FIMM-PDC7, 16.8. For the same compound, the drug sensitivity score with JHOS2 (setting [1]) came out at 13.5; with JHOS2 (setting [2]) it was 7.8; in the assay with Kuramochi (setting [1]), 3.55; with Kuramochi (setting [2]), 5; in the assay with OVSAHO (setting [1]), 5.1; in the assay on OVSAHO (setting [2]), 2.

As for `COc1cc2c(Nc3ccc(Cl)c(Cl)c3F)ncnc2cc1OC[C@@H]1C[C@@H]2CN(C)C[C@@H]2C1` [Tesevatinib], the drug sensitivity score with FIMM-PDC1 is 2.25; in the assay on FIMM-PDC3, 13.6; in the assay on FIMM-PDC4 it was 19.2; in the assay on FIMM-PDC5, 23.9; with FIMM-PDC6, 16.4; in the assay on FIMM-PDC7, 11.5. Moreover, the drug sensitivity score was less than 0 in the assay on JHOS2 (setting [1]); 3.1 in the assay with JHOS2 (setting [2]); 1.35 in the assay on Kuramochi (setting [1]); 1 in the assay on Kuramochi (setting [2]); 0.5 with OVSAHO (setting [1]); 1.9 with OVSAHO (setting [2]).

On to `CCCCCCCCc1ccc(CCC(N)(CO)CO)cc1` [Fingolimod], for which the drug sensitivity score stood at 5.8 in the assay with FIMM-PDC1; 5.8 in the assay on FIMM-PDC3; 7.2 in the assay with FIMM-PDC4; 8.3 in the assay with FIMM-PDC5; 5.7 in the assay with FIMM-PDC6; 7 with FIMM-PDC7. In addition, the drug sensitivity score in the assay on JHOS2 (setting [1]) was determined as 7.1; with JHOS2 (setting [2]) it was 5.3; with Kuramochi (setting [1]), 7.4; in the assay with Kuramochi (setting [2]), 5; in the assay on OVSAHO (setting [1]) it was 6.4; with OVSAHO (setting [2]), 6.1.

As for `C=CC(=O)Nc1cc(Nc2nccc(-c3cn(C)c4ccccc34)n2)c(OC)cc1N(C)CCN(C)C` [Osimertinib], the drug sensitivity score is 4 in the assay on FIMM-PDC1; 9.5 in the assay on FIMM-PDC3; 11 in the assay with FIMM-PDC4; 14.4 in the assay on FIMM-PDC5; 12.5 with FIMM-PDC6; 9.6 in the assay on FIMM-PDC7. In addition, the drug sensitivity score was 4.1 in the assay with JHOS2 (setting [1]); 4.1 in the assay on JHOS2 (setting [2]); 4.8 with Kuramochi (setting [1]); 4.3 with Kuramochi (setting [2]); 5.9 with OVSAHO (setting [1]); 3.3 with OVSAHO (setting [2]).

Take `CC(=O)c1cnc2ccc(-c3cc(Cl)c(O)c(Cl)c3)nc2c1N[C@H]1CC[C@H](CN(C)C)CC1` [OTS167]: the drug sensitivity score was determined as 11.3 in the assay with FIMM-PDC1; 12.4 in the assay with FIMM-PDC3; 12.3 in the assay with FIMM-PDC4; 14.7 with FIMM-PDC5; 13.9 with FIMM-PDC6; 14.6 in the assay with FIMM-PDC7. Besides, the drug sensitivity score in the assay on JHOS2 (setting [1]) was found to be 15.7; in the assay with JHOS2 (setting [2]), 18.8; in the assay with Kuramochi (setting [1]) it was 10.1; with Kuramochi (setting [2]), 5.8; in the assay on OVSAHO (setting [1]) it was 8; in the assay with OVSAHO (setting [2]) it was 10.6.

Turning to `CO[C@H]1C(=O)[C@]2(C)[C@@H](OC)C[C@H]3OC[C@@]3(OC(C)=O)[C@H]2[C@H](OC(=O)c2ccccc2)[C@]2(O)C[C@H](OC(=O)[C@H](O)[C@@H](NC(=O)OC(C)(C)C)c3ccccc3)C(C)=C1C2(C)C` [Cabazitaxel], the drug sensitivity score in the assay with FIMM-PDC1 is 17.4; with FIMM-PDC3, 21.9; in the assay on FIMM-PDC4, 23.9; in the assay on FIMM-PDC5, 23.5; with FIMM-PDC6, 8.7; with FIMM-PDC7, 12.7. In addition, the drug sensitivity score in the assay on JHOS2 (setting [1]) was 20.4; in the assay with JHOS2 (setting [2]), 13.8; in the assay on Kuramochi (setting [1]) it was 19.6; in the assay with Kuramochi (setting [2]), 3.8; in the assay with OVSAHO (setting [1]), 12.3; in the assay with OVSAHO (setting [2]), 15.3.

On to `CC[C@@H](C(=O)[C@@H](C)[C@@H](O)[C@H](C)[C@@H]1O[C@@H]([C@@H](CC)C(=O)O)CC[C@@H]1C)[C@H]1O[C@]2(C=C[C@@H](O)[C@]3(CC[C@@](C)([C@H]4CC[C@](O)(CC)[C@H](C)O4)O3)O2)[C@H](C)C[C@@H]1C` [Salinomycin], for which the drug sensitivity score in the assay with FIMM-PDC1 was found to be 11.6; in the assay on FIMM-PDC3, 18.8; in the assay with FIMM-PDC4 it was 16.8; in the assay with FIMM-PDC5 it was 18.4; in the assay on FIMM-PDC6 it was 8.1; in the assay on FIMM-PDC7, 14.7. The drug sensitivity score with JHOS2 (setting [1]) turned out to be 24.2; in the assay with JHOS2 (setting [2]), 15.5; with Kuramochi (setting [1]), 19.4; with Kuramochi (setting [2]), 21.6; in the assay with OVSAHO (setting [1]), 29.2; with OVSAHO (setting [2]), 4.8.

Take `Cc1sc2c(c1C)C(c1ccc(Cl)cc1)=N[C@@H](CC(=O)NCCCCNC(=O)COc1cccc3c1C(=O)N(C1CCC(=O)NC1=O)C3=O)c1nnc(C)n1-2` (stereo not given in full) [dBET1]: the drug sensitivity score amounted to 0.1 in the assay with FIMM-PDC1; 2.6 in the assay with FIMM-PDC2; 2.7 with FIMM-PDC3; 8.1 in the assay with FIMM-PDC4; 11 with FIMM-PDC5; 7.5 in the assay with FIMM-PDC6. For the same compound, the drug sensitivity score with FIMM-PDC7 turned out to be 5.8; with JHOS2 (setting [1]) it was 3.2; in the assay on JHOS2 (setting [2]), 5.5; in the assay with Kuramochi (setting [1]), 3.9; in the assay on Kuramochi (setting [2]), 4.4; in the assay with OVSAHO (setting [1]), 4.3. For the same compound, in the assay on OVSAHO (setting [2]), the drug sensitivity score is 3.4.

`CN(C)Cc1c(C(=O)NCCOc2ccc(C(=O)NO)cc2)oc2ccccc12` [Abexinostat]: the drug sensitivity score in the assay with FIMM-PDC1 is 12.7; in the assay with FIMM-PDC3, 13.3; with FIMM-PDC4 it was 8.7; with FIMM-PDC5, 16.2; in the assay with FIMM-PDC6 it was 14.3; in the assay on FIMM-PDC7, 11.7. For the same compound, the drug sensitivity score in the assay on JHOS2 (setting [1]) was found to be 14.4; in the assay on JHOS2 (setting [2]) it was 13.3; in the assay with Kuramochi (setting [1]) it was 18.5; in the assay on Kuramochi (setting [2]) it was 8.6; in the assay with OVSAHO (setting [1]), 14.6; in the assay with OVSAHO (setting [2]), 11.9.

Take `CNc1ncc2cc(-c3cc(NC(=O)NCCC(C)(C)C)c(F)cc3C)c(C)nc2n1`: the drug sensitivity score was found to be 1.85 in the assay on FIMM-PDC1; 7.4 in the assay with FIMM-PDC3; 11.9 in the assay on FIMM-PDC4; 18.2 in the assay on FIMM-PDC5; 14.3 in the assay on FIMM-PDC6; 6.2 with FIMM-PDC7. For the same compound, the drug sensitivity score in the assay on JHOS2 (setting [1]) worked out at 7.6; with JHOS2 (setting [2]), 13.6; with Kuramochi (setting [1]), 11.6; in the assay with Kuramochi (setting [2]), 6.2; in the assay with OVSAHO (setting [1]), 12.2; in the assay with OVSAHO (setting [2]) it was 9.2.

Take `Cc1sc2c(c1C)C(c1ccc(Cl)cc1)=N[C@@H](CC(=O)Nc1ccc(OCCOCCOCCOCCNc3cccc4c3C(=O)N(C3CCC(=O)NC3=O)C4=O)cc1)c1nnc(C)n1-2` (stereo not given in full) [ARV-825]: the drug sensitivity score in the assay on FIMM-PDC1 amounted to 0.6; in the assay with FIMM-PDC3, 3.2; in the assay with FIMM-PDC4 it was 8.2; with FIMM-PDC5 it was 8.9; in the assay with FIMM-PDC6 it was 6.7; with FIMM-PDC7 it was 8.7. In addition, the drug sensitivity score worked out at 10.2 with JHOS2 (setting [1]); 8.1 in the assay with JHOS2 (setting [2]); 8.3 with Kuramochi (setting [1]); 10.5 in the assay with Kuramochi (setting [2]); 9.7 in the assay on OVSAHO (setting [1]); 9.1 in the assay with OVSAHO (setting [2]).

Consider `Cn1ncc(Cl)c1-c1cc(C(=O)N[C@H](CN)Cc2ccc(F)c(F)c2)oc1Cl` [Uprosertib], for which the drug sensitivity score in the assay with FIMM-PDC1 is 1.9; in the assay with FIMM-PDC3 it was less than 0; with FIMM-PDC4, 5; in the assay on FIMM-PDC5 it was 8.9; in the assay with FIMM-PDC6 it was 6.8; in the assay with FIMM-PDC7, 6.5. The drug sensitivity score was 0.6 with JHOS2 (setting [1]); 0.2 with JHOS2 (setting [2]); 1.55 in the assay with Kuramochi (setting [1]); less than 0 in the assay with Kuramochi (setting [2]); less than 0 in the assay with OVSAHO (setting [1]); 2.5 in the assay with OVSAHO (setting [2]).

Values taken from the supplement of paper PMC9386025.
